Where two headings read alike, the source gives them in different places.
Experiments:
[1] = tested on: CD8-MerTK in Ba/F3-CDM cells; experiment: In cell MER kinase assay, Ba/F3-CDM cell proliferation without IL-3 (Celltiter-Glo); type: cell-based, murine; conditions: 48 hours compound treatment, read-out: Cell growth inhibition (GI50)
Outline: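 Ba/F3 cells, IL-3-dependent, transfected with CD8-MerTK and grown without IL-3 in DMEM/10% FBS. IL-3-supplemented Ba/F3 cells run in parallel as a cytotoxicity control.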

[2] = target: human c-MER catalytic domain (Homo sapiens (Human), UniProt Q12866); experiment: LanthaScreen TR-FRET kinase assay, c-MER
[3] = read-out: Mer TK inhibition (IC50), Biochemical IC50, TR-FRET, 10 uM ATP

Sequence of human c-MER catalytic domain (Q12866 587-858): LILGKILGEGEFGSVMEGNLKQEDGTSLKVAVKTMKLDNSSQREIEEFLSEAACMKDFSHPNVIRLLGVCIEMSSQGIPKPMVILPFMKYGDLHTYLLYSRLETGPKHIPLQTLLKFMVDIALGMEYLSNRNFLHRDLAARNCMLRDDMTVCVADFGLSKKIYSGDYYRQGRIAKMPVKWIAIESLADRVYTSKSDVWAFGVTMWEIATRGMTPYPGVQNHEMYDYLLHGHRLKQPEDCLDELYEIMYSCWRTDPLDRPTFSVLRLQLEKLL

Row | IC50 [2] [nM] | Compound | GI50 [1] [nM] | IC50 [2, 3] [nM]
1 | – | Cc1ccc(CO[C@H]2CCC[C@@H]2NC(=O)c2cc(-c3ccc(CN4CCC(N5CCOCC5)C4)cc3)cnc2N)cc1C (stereo partly drawn) [Example 337, 2-amino-N-((1S,2S)-2-((3,4-dimethylbenzyl)oxy)cyclopentyl)-5-(4-((3-morpholinopyrrolidin-1-yl)methyl)phenyl)nicotinamide] | 500 to 1000 | < 10
2 | – | CCc1cc(CO[C@H]2CCC[C@@H]2NC(=O)c2cc(-c3ccc(C(C)(C)N4CCN(CCO)CC4)cc3)cnc2N)ccc1C [Example 360, 2-amino-N-((1S,2S)-2-((3-ethyl-4-methylbenzyl)oxy)cyclopentyl)-5-(4-(2-(4-(2-hydroxyethyl)piperazin-1-yl)propan-2-yl)phenyl)nicotinamide] | > 1000 | < 10
3 | – | CN1CCN(Cc2ccc(-c3ccc(CO[C@H]4CCC[C@@H]4NC(=O)c4cc(-c5ccc(F)cc5)cnc4N)cc3)cc2)CC1 [Example 363, 2-amino-5-(4-fluorophenyl)-N-((1S,2S)-2-((4′-((4-methylpiperazin-1-yl)methyl)-[1,1′-biphenyl]-4-yl)methoxy)cyclopentyl)nicotinamide] | 100 to 500 | < 10
4 | – | CN1CCN(Cc2ccc(-c3ccc(CO[C@H]4CCC[C@@H]4NC(=O)c4cc(-c5ccc(F)c(F)c5)cnc4N)cc3)cc2)CC1 [Example 364] | < 100 | < 10
5 | – | CN1CCC(n2cc(-c3cnc(N)c(C(=O)N[C@H]4CCC[C@@H]4OCc4ccc(-c5ccc(CN6CCN(C)CC6)cc5)cc4)c3)cn2)CC1 [Example 366, 2-amino-N-((1S,2S)-2-((4′-((4-methylpiperazin-1-yl)methyl)-[1,1′-biphenyl]-4-yl)methoxy)cyclopentyl)-5-(1-(1-methylpiperidin-4-yl)-1H-pyrazol-4-yl)nicotinamide] | < 100 | < 10
6 | – | CN1CCN(Cc2ccc(-c3ccc(CO[C@H]4CCC[C@@H]4NC(=O)c4cc(-c5ccc(N6CCN(C)CC6)cc5)cnc4N)cc3)cc2)CC1 [Example 367, 2-amino-N-((1S,2S)-2-((4′-((4-methylpiperazin-1-yl)methyl)-[1,1′-biphenyl]-4-yl)methoxy)cyclopentyl)-5-(4-(4-methylpiperazin-1-yl)phenyl)-nicotinamide] | < 100 | < 10
7 | – | CN1CCN(Cc2ccc(-c3ccc(CO[C@H]4CCC[C@@H]4NC(=O)c4cc(-c5ccc(CN6CCN(C)CC6)cc5)cnc4N)cc3)cc2)CC1 [Example 368] | < 100 | < 10
8 | – | CN1CCN(Cc2ccc(-c3ccc(CO[C@H]4CCC[C@@H]4NC(=O)c4cc(-c5ccc(CO)cc5)cnc4N)cc3)cc2)CC1 [Example 369, 2-amino-5-(4-(hydroxymethyl)phenyl)-N-((1S,2S)-2-((4′-((4-methylpiperazin-1-yl)methyl)-[1,1′-biphenyl]-4-yl)methoxy)cyclopentyl)nicotinamide] | < 100 | < 10
9 | – | Cc1cccc(-c2cnc(N)c(C(=O)N[C@H]3CCC[C@@H]3OCc3ccc(-c4ccc(CN5CCN(C)CC5)cc4)cc3)c2)c1 [Example 370, 2-amino-N-((1S,2S)-2-((4′-((4-methylpiperazin-1-yl)methyl)-[1,1′-biphenyl]-4-yl)methoxy)cyclopentyl)-5-(m-tolyl)nicotinamide] | < 100 | < 10
10 | – | CN1CCN(Cc2ccc(-c3ccc(CO[C@H]4CCC[C@@H]4NC(=O)c4cc(-c5ccccc5)cnc4N)cc3)cc2)CC1 [Example 371, 2-amino-N-((1S,2S)-2-((4′-((4-methylpiperazin-1-yl)methyl)-[1,1′-biphenyl]-4-yl)methoxy)cyclopentyl)-5-phenylnicotinamide] | < 100 | < 10
11 | – | CN1CCN(Cc2ccc(-c3ccc(CO[C@H]4CCC[C@@H]4NC(=O)c4cc(-c5ccc(O)cc5)cnc4N)cc3)cc2)CC1 [Example 372] | < 100 | < 10
12 | – | Cc1cnc(N)c(C(=O)N[C@H]2CCC[C@@H]2OCc2ccc(-c3ccc(CN4CCN(C)CC4)cc3)cc2)c1 [Example 374, 2-amino-5-methyl-N-((1S,2S)-2-((4′-((4-methylpiperazin-1-yl)-methyl)-[1,1′-biphenyl]-4-yl)methoxy)cyclopentyl)nicotinamide] | 100 to 500 | < 10
13 | – | CN1CCN(Cc2ccc(-c3ccc(CO[C@H]4CCC[C@@H]4NC(=O)c4cc(-c5cccnc5)cnc4N)cc3)cc2)CC1 [Example 375, 6-amino-N-((1S,2S)-2-((4′-((4-methylpiperazin-1-yl)methyl)-[1,1′-biphenyl]-4-yl)methoxy)cyclopentyl)-[3,3′-bipyridine]-5-carboxamide] | < 100 | < 10
14 | – | COc1ccc(-c2cnc(N)c(C(=O)N[C@H]3CCC[C@@H]3OCc3ccc(-c4ccc(CN5CCN(C)CC5)cc4)cc3)c2)cc1 [Example 376] | < 100 | < 10
15 | – | CN1CCN(Cc2ccc(-c3ccc(CO[C@H]4CCC[C@@H]4NC(=O)c4cc(-c5ccncc5)cnc4N)cc3)cc2)CC1 [Example 377, 6-amino-N-((1S,2S)-2-((4′-((4-methylpiperazin-1-yl)methyl)-[1,1′-biphenyl]-4-yl)methoxy)cyclopentyl)-[3,4′-bipyridine]-5-carboxamide] | < 100 | < 10
16 | – | CC1CCN(Cc2ccc(-c3cnc(N)c(C(=O)N[C@H]4CCC[C@@H]4OCc4ccc(-c5ccc(CN6CCN(C)CC6)cc5)cc4)c3)cc2)CC1 [Example 378, 2-amino-N-((1S,2S)-2-((4′-((4-methylpiperazin-1-yl)methyl)-[1,1′-biphenyl]-4-yl)methoxy)cyclopentyl)-5-(4-((4-methylpiperidin-1-yl)methyl)phenyl)-nicotinamide] | < 100 | < 10
17 | – | CN1CCN(Cc2ccc(-c3ccc(CO[C@H]4CCC[C@@H]4NC(=O)c4cc(-c5ccc(CN6CCOCC6)cc5)cnc4N)cc3)cc2)CC1 [Example 379, 2-amino-N-((1S,2S)-2-((4′-((4-methylpiperazin-1-yl)methyl)-[1,1′-biphenyl]-4-yl)methoxy)cyclopentyl)-5-(4-(morpholinomethyl)phenyl)nicotinamide] | < 100 | < 10
18 | – | CN1CCN(Cc2ccc(-c3ccc(CO[C@H]4CCC[C@@H]4NC(=O)c4cc(-c5cnn(C6CCOCC6)c5)cnc4N)cc3)cc2)CC1 [Example 380] | < 100 | < 10
19 | – | CN1CCN(Cc2ccc(-c3ccc(CO[C@H]4CCC[C@@H]4NC(=O)c4cc(-c5ccc(N6CCOCC6)cc5)cnc4N)cc3)cc2)CC1 [Example 381, 2-amino-N-((1S,2S)-2-((4′-((4-methylpiperazin-1-yl)methyl)-[1,1′-biphenyl]-4-yl)methoxy)cyclopentyl)-5-(4-morpholinophenyl)nicotinamide] | < 100 | < 10
20 | – | COc1ccc(-c2cnc(N)c(C(=O)N[C@H]3CCC[C@@H]3OCc3ccc(-c4ccc(CN5CCN(C)CC5)cc4)cc3)c2)cc1OC [Example 383, 2-amino-5-(3,4-dimethoxyphenyl)-N-((1S,2S)-2-((4′-((4-methylpiperazin-1-yl)methyl)-[1,1′-biphenyl]-4-yl)methoxy)cyclopentyl)nicotinamide] | < 100 | < 10
21 | – | CN1CCN(Cc2ccc(-c3ccc(CO[C@H]4CCC[C@@H]4NC(=O)c4cc(-c5cc(F)nc(F)c5)cnc4N)cc3)cc2)CC1 [Example 384] | < 100 | < 10
22 | – | Cc1cscc1-c1cnc(N)c(C(=O)N[C@H]2CCC[C@@H]2OCc2ccc(-c3ccc(CN4CCN(C)CC4)cc3)cc2)c1 [Example 385, 2-amino-N-((1S,2S)-2-((4′-((4-methylpiperazin-1-yl)methyl)-[1,1′-biphenyl]-4-yl)methoxy)cyclopentyl)-5-(4-methylthiophen-3-yl)nicotinamide] | 100 to 500 | < 10
23 | – | CN1CCN(Cc2ccc(-c3ccc(CO[C@H]4CCC[C@@H]4NC(=O)c4cc(-c5ccc(F)nc5)cnc4N)cc3)cc2)CC1 [Example 386, 6-amino-6′-fluoro-N-((1S,2S)-2-((4′-((4-methylpiperazin-1-yl)methyl)-[1,1′-biphenyl]-4-yl)methoxy)cyclopentyl)-[3,3′-bipyridine]-5-carboxamide] | < 100 | < 10
24 | – | CN1CCN(Cc2ccc(-c3ccc(CO[C@H]4CCC[C@@H]4NC(=O)c4cc(-c5cnn(C(F)(F)C(F)F)c5)cnc4N)cc3)cc2)CC1 [Example 387] | < 100 | < 10
25 | < 10 | CCc1cc(CO[C@H]2CNC[C@@H]2NC(=O)c2cc(-c3cnn(C)c3)cnc2N)ccc1C [Example 388, 2-amino-N-((3S,4S)-4-((3-ethyl-4-methylbenzyl)oxy)pyrrolidin-3-yl)-5-(1-methyl-1H-pyrazol-4-yl)nicotinamide] | 100 to 500 | –
26 | – | CCc1cc(CO[C@H]2CNC[C@@H]2NC(=O)c2cc(-c3ccc(CO)cc3)cnc2N)ccc1C [Example 389, 2-amino-N-((3S,4S)-4-((3-ethyl-4-methylbenzyl)oxy)pyrrolidin-3-yl)-5-(4-(hydroxymethyl)phenyl)nicotinamide] | 100 to 500 | < 10
27 | – | CCc1cc(CO[C@H]2CNC[C@@H]2NC(=O)c2cc(-c3ccc(CN4CCN(C)CC4)cc3)cnc2N)ccc1C [Example 390, 2-amino-N-((3S,4S)-4-((3-ethyl-4-methylbenzyl)oxy)pyrrolidin-3-yl)-5-(4-((4-methylpiperazin-1-yl)methyl)phenyl)nicotinamide] | 100 to 500 | < 10
28 | – | CCc1cc(CO[C@H]2CNC[C@@H]2NC(=O)c2cc(-c3ccc(C(N)=O)cc3)cnc2N)ccc1C [Example 391, 2-amino-5-(4-carbamoylphenyl)-N-((3S,4S)-4-((3-ethyl-4-methylbenzyl)oxy)pyrrolidin-3-yl)nicotinamide] | > 1000 | < 10
29 | – | CCc1cc(CO[C@H]2CNC[C@@H]2NC(=O)c2cc(-c3ccccc3)cnc2N)ccc1C [Example 394, 2-amino-N-((3S,4S)-4-((3-ethyl-4-methylbenzyl)oxy)pyrrolidin-3-yl)-5-phenylnicotinamide] | 500 to 1000 | < 10

— patent US10125118B2, “Heteroaryl compounds and their use as therapeutic drugs” (Dong-A Socio Holdings Co., Ltd., priority 2015, dated 2018)
